Reference: patent US20080145313A1, “Compositions and Methods for the Treatment and Prevention of Neoplastic Disorders” (Genesis Research & Development Corporation Limited, priority 2006, published 2008)

test system: A549 cells; test: Growth inhibition of siRNA-transfected A549 cells, SYBR Green I DNA content; format: cell-based, human; conditions: 10 nM siRNA; DNA content 96 hours after transfection
Protocol: A549 cells (human lung cancer cell line; ATCC No. CCL-185), SK-MeI-5 cells (human melanoma cell line; ATCC No. HTB-70), MCF-7 cells (human adenocarcinoma cell line; ATCC No. HTB-22), HCT-116 cells (colorectal carcinoma; ATCC CCL-247) and HCT-116 p53 null cells (derived from ATCC No. CCL-247; Bunz et al., Science 282:1497-1501, 1998) were cultured in RPMI 1640 medium with 10% v/v heat-inactivated fetal calf serum (FCS). Cells were seeded at a density of 5×10^4 cells/cm^2 in multi-well tissue culture plates. Sequences of Stealth™ siRNA duplexes (Invitrogen) targeting human ribonucleotide reductase subunit 1 (SEQ ID NO: 22) and subunit 2 (SEQ ID NO; 38) are given in SEQ ID NO: 4830-4832 (DNA), and SEQ ID NO: 5136-5138 (RNA) for RRM1, and SEQ ID NO: 5306-5308 (DNA), and SEQ ID NO: 5303-5305 (RNA) for RRM2. siRNAs were transfected at different concentrations into cells using Lipofectamine™ RNAiMAX transfection reagent (Invitrogen). Non-specific siRNA (SEQ ID NO: 4804 and 4805 (DNA), and SEQ ID NO: 5301 and 5302 (RNA)) were used as controls. The cellular DNA content was measured using a SYBR Green I-based fluorometric assay at 24, 48, 72 and 96 hours after transfection (120 hours for the MCF-7 cells), as follows. At the indicated time points following reverse transfection, cells were harvested and frozen at −80° C. overnight. Cells were thawed and cell lysis buffer (phosphate-buffered saline (PBS) containing 1% Triton X-100, pH 7) and SYBR Green I (1:10^5 V/V; Invitrogen) was added to the wells and incubated overnight in the dark at 4° C.
The following day, cell lysates were mixed thoroughly, and DNA fluorescence was measured with a Wallac Victor^2 plate reader (Turku, Finland) set at an excitation frequency of 485 nm and measuring emission at 535 nm.
To determine the duration of the knock-down effect of RRM1-targeting siRNA, A549 cells were reverse transfected with 1 or 10 nM RRM1-3 (SEQ ID NO: 4832 (DNA, and SEQ ID NO: 5138 (RNA)) or control siRNA (SEQ ID NO: 4804 (DNA), and SEQ ID NO: 5301 (RNA)), and growth followed over time. Growth inhibition was measured daily as described above for up to ten days. RRM1-3-mediated RRM1 silencing inhibited growth for at least 10 days post-transfection at both 1 and 10 nM (FIG. 11).
siRNA-mediated inhibition of cancer cell growth was determined in A549 cells as follows. A549 cells (human lung cancer cell line; ATCC No. CCL-185) were cultured in RPMI 1640 medium with 10% v/v heat-inactivated fetal calf serum. Cells were seeded at a density of 5×10^3 cells/cm^2 in multi-well tissue culture plates. Stealth™ siRNA duplexes (Invitrogen) targeting genes involved in cancer energy and metabolism pathways and listed in Table 9, were transfected at 10 nM into cells using Lipofectamine™ RNAiMAX transfection reagent (Invitrogen). Non-specific siRNA (SEQ ID NO: 4804 and 4805 (DNA), and SEQ ID NO: 5301 and 5302 (RNA)) were used as controls. The cellular DNA content was measured using a SYBR Green I-based fluorometric assay at 96 hours after transfection. The cells were harvested and frozen at −80° C. overnight. Cells were thawed and cell lysis buffer (phosphate-buffered saline (PBS) containing 1% Triton X-100, pH 7) and SYBR Green I (1:10^5 v/v; Invitrogen) was added to the wells and incubated overnight in the dark at 4° C. The following day, cell lysates were mixed thoroughly, and DNA fluorescence was measured with a Wallac Victor^2 plate reader (Turku, Finland) set at an excitation frequency of 485 nm and measuring emission at 535 nm.
Three different siRNAs were tested for each target gene. The average fluorescence units from three replicate wells, representing the amount of DNA per well, were used to determine the effect on growth inhibition. The results are given in Table 10 (energy and metabolism gene targets) and Table 11 (transporter gene targets).
siRNA-mediated RNAi was also determined on a panel of different cell lines. […]

Q: With “SEQ ID NO: 4996: siRNA targeting DGUOK (chain 1 CCTGCACTGCCCAAAGTCTTGGAAA; chain 2 CCUGCACUGCCCAAAGUCUUGGAAA; chemistry not given here; one strand in two spellings)” as the substance, how does the “Growth Inhibition in A549 cells” value read?
A: Its value is “− (no growth inhibition with any siRNA)”.

Q: For “SEQ ID NO: 4850: siRNA targeting COX5A (chain 1 ATTTAAAGTTGGTCTAAGTTCCTGG; chain 2 AUUUAAAGUUGGUCUAAGUUCCUGG; chemistry not given here; one strand in two spellings)”, which “Growth Inhibition in A549 cells” value is on record?
A: Its value is “− (no growth inhibition with any siRNA)”.

Q: With “SEQ ID NO: 4865: siRNA targeting SLC25A6 (ANT3) (chain 1 TTTGCGCCCGAACTGCATCATCATG; chain 2 UUUGCGCCCGAACUGCAUCAUCAUG; Both strands are one antisense strand in DNA/RNA notation, chemistry not given here, further chemistry not given here; one strand in two spellings)” as the substance, how does the “Growth Inhibition in A549 cells” value read?
A: Its value is “− (no growth inhibition with any siRNA)”.

Q: “SEQ ID NO: 4817: siRNA targeting LDHA/5 (chain 1 TATACTCTCTGCCAAATCTGCTACA; chain 2 UAUACUCUCUGCCAAAUCUGCUACA; chemistry not given here; one strand in two spellings)” was tested. Which “Growth Inhibition in A549 cells” value did it give?
A: The value was “− (no growth inhibition with any siRNA)”.

Q: Which “Growth Inhibition in A549 cells” value does the source give for “SEQ ID NO: 4809: siRNA targeting H6PD (G6PDH) (chain 1 TTTGCCAGACATCAGGATGAAAGGC; chain 2 UUUGCCAGACAUCAGGAUGAAAGGC; chemistry not given here; one strand in two spellings)” here?
A: The value was “++ (inhibits by at least 75%)”.

Q: For “SEQ ID NO: 4810: siRNA targeting H6PD (G6PDH) (chain 1 TCTTGAACAAGATCCGAGCGTAGCC; chain 2 UCUUGAACAAGAUCCGAGCGUAGCC; chemistry not given here; one strand in two spellings)”, which “Growth Inhibition in A549 cells” value is on record?
A: The value was “− (no growth inhibition with any siRNA)”.

Q: Which “Growth Inhibition in A549 cells” value does the source give for “SEQ ID NO: 4852: siRNA targeting ATP5B (chain 1 AATCATTGCCTTCACGGGTCCTCTC; chain 2 AAUCAUUGCCUUCACGGGUCCUCUC; Both strands are one antisense strand in DNA/RNA notation, chemistry not given here, further chemistry not given here; one strand in two spellings)” here?
A: The value was “− (no growth inhibition with any siRNA)”.

Q: “SEQ ID NO: 4867: siRNA targeting UQCRC2 (chain 1 AAATGCATTTGCCTCTGCACTTCCC; chain 2 AAAUGCAUUUGCCUCUGCACUUCCC; Both strands are one antisense strand in DNA/RNA notation, chemistry not given here, further chemistry not given here; one strand in two spellings)” was tested. Which “Growth Inhibition in A549 cells” value did it give?
A: The value was “− (no growth inhibition with any siRNA)”.

Q: With “SEQ ID NO: 4814: siRNA targeting HK-II (chain 1 TTAACAATGATGCTGTCGTCACAGG; chain 2 UUAACAAUGAUGCUGUCGUCACAGG; chemistry not given here; one strand in two spellings)” as the substance, how does the “Growth Inhibition in A549 cells” value read?
A: The value was “− (no growth inhibition with any siRNA)”.

Q: “SEQ ID NO: 5000: siRNA targeting UMPS (chain 1 GCTGTTGCAGCTAGCAGATGCTTTA; chain 2 GCUGUUGCAGCUAGCAGAUGCUUUA; chemistry not given here; one strand in two spellings)” was tested. Which “Growth Inhibition in A549 cells” value did it give?
A: Its value is “− (no growth inhibition with any siRNA)”.

Q: With “SEQ ID NO: 4992: siRNA targeting TK2 (chain 1 GGGATCGAATATTAACTCCAGAGAA; chain 2 GGGAUCGAAUAUUAACUCCAGAGAA; chemistry not given here; one strand in two spellings)” as the substance, how does the “Growth Inhibition in A549 cells” value read?
A: The value was “− (no growth inhibition with any siRNA)”.

Q: With “SEQ ID NO: 4821: siRNA targeting PRPS1 (chain 1 AATTGTCATTGATTTCGCCACAACC; chain 2 AAUUGUCAUUGAUUUCGCCACAACC; chemistry not given here; one strand in two spellings)” as the substance, how does the “Growth Inhibition in A549 cells” value read?
A: Its value is “− (no growth inhibition with any siRNA)”.

Q: For “SEQ ID NO: 4826: siRNA targeting CPS1 (chain 1 TTCCCAAGCATGGTACCCTTATCCC; chain 2 UUCCCAAGCAUGGUACCCUUAUCCC; chemistry not given here; one strand in two spellings)”, which “Growth Inhibition in A549 cells” value is on record?
A: The value was “− (no growth inhibition with any siRNA)”.

Q: How did the “Growth Inhibition in A549 cells” value turn out when “SEQ ID NO: 4844: siRNA targeting NADSYN (chain 1 TTTCTATGCACCGAAACTGCCAAGG; chain 2 UUUCUAUGCACCGAAACUGCCAAGG; chemistry not given here; one strand in two spellings)” was run?
A: Its value is “− (no growth inhibition with any siRNA)”.

Q: Which “Growth Inhibition in A549 cells” value does the source give for “SEQ ID NO: 4818: siRNA targeting PFKL (chain 1 AATGTCTGTCTTCATCTTCTCCGTC; chain 2 AAUGUCUGUCUUCAUCUUCUCCGUC; chemistry not given here; one strand in two spellings)” here?
A: Its value is “− (no growth inhibition with any siRNA)”.

Q: With “SEQ ID NO: 4872: siRNA targeting RRM2B (chain 1 TTTGACAGCATCAACAATGATCTCC; chain 2 UUUGACAGCAUCAACAAUGAUCUCC; Both strands are one antisense strand in DNA/RNA notation, chemistry not given here, further chemistry not given here; one strand in two spellings)” as the substance, how does the “Growth Inhibition in A549 cells” value read?
A: Its value is “− (no growth inhibition with any siRNA)”.

Q: How did the “Growth Inhibition in A549 cells” value turn out when “SEQ ID NO: 4856: siRNA targeting FASN (chain 1 CTTCGATGTATTCAAATGACTCAGG; chain 2 CUUCGAUGUAUUCAAAUGACUCAGG; Both strands are one antisense strand in DNA/RNA notation, chemistry not given here, further chemistry not given here; one strand in two spellings)” was run?
A: The value was “− (no growth inhibition with any siRNA)”.

same assay, conditions: 10 nM siRNA; up to 120 hours post-transfection (FIG. 8)

Q: “SEQ ID NO: 4872: siRNA targeting RRM2B (chain 1 TTTGACAGCATCAACAATGATCTCC; chain 2 UUUGACAGCAUCAACAAUGAUCUCC; Both strands are one antisense strand in DNA/RNA notation, chemistry not given here, further chemistry not given here; one strand in two spellings)” was tested. Which “growth inhibition, A549” value did it give?
A: The value was “No inhibition of growth”.

same assay, conditions: A549 cells, 10 nM siRNA, DNA content 96 hours after transfection, transporter gene targets

Q: “SEQ ID NO: 4942: siRNA targeting ATP2B2 (PMCA2) (chain 1 TTCCAGGTCGGTGTCATCAATGAGG; chain 2 UUCCAGGUCGGUGUCAUCAAUGAGG; chemistry not given here; one strand in two spellings)” was tested. Which “Growth Inhibition in A549 cells by 10 nM siRNA” value did it give?
A: Its value is “− (no growth inhibition)”.

Q: “SEQ ID NO: 4944: siRNA targeting ATP2B3 (PMCA3) (chain 1 AAAGCTTGTCTTCCGGGATCTGCTC; chain 2 AAAGCUUGUCUUCCGGGAUCUGCUC; chemistry not given here; one strand in two spellings)” was tested. Which “Growth Inhibition in A549 cells by 10 nM siRNA” value did it give?
A: Its value is “− (no growth inhibition)”.
